Patent publication US20230303540A1 (Merck Sharp & Dohme LLC, priority 2020, published 2023)

Target: GST-tagged truncated human mutant G2019S LRRK2 (Homo sapiens, UniProt Q5S007, G2019S)
Test: LRRK2 G2019S Km ATP LanthaScreen assay
Format: biochemical
Conditions: 134 μM ATP (Km ATP), LRRKtide substrate, mean IC50 values; read-out: LRRK2 pIC50 (converted)
Description: Unless otherwise noted, all reactions are magnetically stirred. Unless otherwise noted, when diethyl ether is used in the experiments described below, it is Fisher ACS certified material and is stabilized with BHT. Unless otherwise noted, “concentrated” and/or “solvent removed under reduced pressure” means evaporating the solvent from a solution or mixture using a rotary evaporator or vacuum pump. Unless otherwise noted, flash chromatography is carried out on a Teledyne Isco (Lincoln, NE), Analogix (Burlington, WI), or Biotage (Stockholm, SWE) automated chromatography system using a commercially available cartridge as the column. Columns may be purchased from Teledyne Isco, Analogix, Biotage, Varian (Palo Alto, CA), or Supelco (Bellefonte, PA) and are usually filled with silica gel as the stationary phase. Reverse phase prep-HPLC conditions, where used, can be found at the end of each experimental section. Aqueous solutions were concentrated on a Genevac (Ipswich, ENG) or by freeze-drying/lyophilization. Unless otherwise noted, all LRRK2 pIC50 data presented in tables refers to the LRRK2 G2019S Km ATP LanthaScreen™ assay (Life Technologies Corp., Carlsbad, CA) that is described in the Biological Assay section.
The IC50 values reported herein were measured as follows.
Biological Assay: LRRK2 Km ATP LanthaScreen™ Assay
The LRRK2 kinase activity reported herein as IC50 values was determined with LanthaScreen™ technology from Life Technologies Corporation (Carlsbad, CA) using GST-tagged truncated human mutant G2019S LRRK2 in the presence of the fluorescein-labeled peptide substrate LRRKtide, also from Life Technologies. The data presented for the Km ATP LanthaScreen™ Assay represents mean IC50 values based on several test results and may have reasonable deviations depending on the specific conditions and reagents used. Assays were performed in the presence of 134 μM ATP (Km ATP). Upon completion, the assay was stopped and phosphorylated substrate detected with a terbium (Tb)-labeled anti-pERM antibody (cat. no. PV4898). The compound dose response was prepared by diluting a 10 mM stock of compound to a maximum concentration of 9.99 μM in 100% dimethylsulfoxide followed by custom fold serial dilution in dimethylsulfoxide nine times. Twenty nanoliters of each dilution was spotted via a Labcyte Echo onto a 384-well black-sided plate (Corning 3575) followed by 15 μl of a 1.25 nM enzyme solution in 1× assay buffer (50 mM Tris pH 8.5, 10 mM MgCl2, 0.01% Brij-35, 1 mM EGTA, 2 mM dithiothreitol, 0.05 mM sodium orthovanadate). Following a 15-minute incubation at room temperature, the kinase reaction was started with the addition of 5 μl of 400 nM fluorescein-labeled LRRKtide peptide substrate and 134 μM ATP solution in 1× assay buffer. The reaction was allowed to progress at ambient temperature for 90 minutes. The reaction was then stopped by the addition of 20 μl of TR-FRET Dilution Buffer (Life Technologies, Carlsbad, CA) containing 2 nM Tb-labeled anti-phospho LRRKtide antibody and 10 mM EDTA (Life Technologies, Carlsbad, CA). After an incubation of 1 hour at room temperature, the plate was read on an EnVision multimode plate reader (Perkin Elmer, Waltham, MA) with an excitation wavelength of 337 nm (Laser) and a reading emission at both 520 and 495 nm. Compound IC50s were interpolated from nonlinear regression best fits of the log of the final compound concentration, plotted as a function of the 520/495-nm emission ratio using Activity base. Abase uses a 4 parameter (4P) logistic fit based on the Levenberg-Marquardt algorithm.

Row | Compound | IC50 [nM]
1 | CC1(O)CCN(c2cc3nc(Nc4cnn(C56CC(C5)C6)c4)ncc3cc2Cl)CC1 [Ex-6.11, 1-(2-{[1-(bicyclo[1.1.1]pentan-1-yl)-1H-pyrazol-4-yl]amino}-6-chloroquinazolin-7-yl)-4-methylpiperidin-4-ol] | 0.808
2 | Cc1c(Nc2ncc3cc(Cl)c(N4CCN(C5CCCC5C#N)CC4)cc3n2)cnn1C1CC1 (single isomer, unassigned) [Ex-1.7, (3S,4S or 3R,4R)-2-(4-{6-chloro-2-[(1-cyclopropyl-5-methyl-1H-pyrazol-4-yl)amino]quinazolin-7-yl}piperazin-1-yl)cyclopentane-1-carbonitrile] | 6.91
3 | C[C@H]1CN(C)CCN1c1cc2nc(Nc3cnn(C4(C)CC4)c3Cl)ncc2cc1Cl [Ex-4.36, 6-chloro-N-[5-chloro-1-(1-methylcyclopropyl)-1H-pyrazol-4-yl]-7-[(2S)-2,4-dimethylpiperazin-1-yl]quinazolin-2-amine] | 6.06
4 | O[C@@H]1COC[C@@H]1N1CCN(c2nc3nc(Nc4cnn(C5CC5)c4Cl)ncc3cc2Cl)CC1 (single isomer, unassigned) [Ex-16.2, (3S,4S) or (3R, 4R)-4-(4-(6-Chloro-2-((5-chloro-1-cyclopropyl-1H-pyrazol-4-yl)amino)pyrido[2,3-d]pyrimidin-7-yl)piperazin-1-yl)tetrahydrofuran-3-ol] | 126
5 | CC1(N2CCN(c3cc4nc(Nc5cnn(C6CC(F)C6)c5Cl)ncc4cc3Cl)CC2)COC1 (stereo not drawn) [Ex-3.21, 6-chloro-N-[5-chloro-1-(3-fluorocyclobutyl)-1H-pyrazol-4-yl]-7-[4-(3-methyloxetan-3-yl)piperazin-1-yl]quinazolin-2-amine] | 4.01
6 | N#CCCN1CCN(c2cc3nc(Nc4cnn(C5CC5)c4Cl)ncc3cc2Cl)CC1 [Ex-1.29, 3-(4-{6-chloro-2-[(5-chloro-1-cyclopropyl-1H-pyrazol-4-yl)amino]quinazolin-7-yl}piperazin-1-yl)propanenitrile] | 2.78
7 | CC1(O)CCN(c2c(Cl)cc3cnc(Nc4cnn(C56CC(C5)C6)c4Cl)nc3c2Cl)CC1 [Ex-6.12, 1-(2-{[1-(bicyclo[1.1.1]pentan-1-yl)-5-chloro-1H-pyrazol-4-yl]amino}-6,8-dichloroquinazolin-7-yl)-4-methylpiperidin-4-ol] | 1.24
8 | OC1C2CC1CN(c1cc3nc(Nc4cnn(C5CC5)c4)ncc3cc1Cl)C2 (stereo not drawn) [Ex-3.28, 3-{6-chloro-2-[(1-cyclopropyl-1H-pyrazol-4-yl)amino]quinazolin-7-yl}-3-azabicyclo [3.1.1]heptan-6-ol] | 4.52
9 | OC[C@@H]1[C@H]2CN(c3cc4nc(Nc5cnn(CC(F)F)c5Cl)ncc4cc3Cl)C[C@@H]12 [Ex-1.19, [(1R,5S,6R)-3-(6-chloro-2-{[5-chloro-1-(2,2-difluoroethyl)-1H-pyrazol-4-yl]amino}quinazolin-7-yl)-3-azabicyclo[3.1.0]hexan-6-yl]methanol] | 4.87
10 | Cn1ncc(Nc2ncc3cc(Cl)c(N4CCN(C5(C)COCC5O)CC4)cc3n2)c1Cl (single isomer, unassigned) [Ex-6.36, (3S,4S) or (3R,4R) 4-[4-{6-chloro-2-[(5-chloro-1-methyl-1H-pyrazol-4-yl)amino]quinazolin-7-yl}piperazin-1-yl)-4-methyloxolan-3-ol] | 11.2
11 | CCn1ncc(Nc2ncc3ccc(N4C(=O)[C@H]5CC[C@@H]4C5)nc3n2)c1C (single isomer, unassigned) [Ex-15.4, (1S,4R) or (1R,4S)-2-{2-[(1-ethyl-5-methyl-1H-pyrazol-4-yl)amino]pyrido[2,3-d]pyrimidin-7-yl}-2-azabicyclo[2.2.1]heptan-3-one] | 12.5
12 | CCn1ncc(Nc2ncc3ccc(N4C(=O)C5CCC4C5)cc3n2)c1C (stereo not drawn) [Ex-7.20, 2-{2-[(1-ethyl-5-methyl-1H-pyrazol-4-yl)amino]quinazolin-7-yl}-2-azabicyclo[2.2.1]heptan-3-one] | 11.3
13 | C[C@@]1(O)COCC12CCN(c1cc3nc(Nc4cnn(C5CC5)c4Cl)ncc3cc1Cl)CC2 [Ex-3.5] | 1.54
14 | C[C@]1(O)COCC12CCN(c1cc3nc(Nc4cnn(C5CC5)c4Cl)ncc3cc1Cl)CC2 [Ex-3.4] | 19.9
15 | CC(C)(O)Cn1cc(Nc2ncc3cc(Cl)c(N4C[C@H]5CC[C@@H](C4)[C@@]5(C)O)cc3n2)cn1 [Ex-3.32, (8-syn)-3-(6-chloro-2-{[1-(2-hydroxy-2-methylpropyl)-1H-pyrazol-4-yl]amino}quinazolin-7-yl)-8-methyl-3-azabicyclo[3.2.1]octan-8-ol] | 0.393
16 | CN1CC2CC1CN2c1cc2nc(Nc3cnn(C4(C)CC4)c3Cl)ncc2cc1Cl (stereo not drawn) [Ex-4.35, 6-chloro-N-[5-chloro-1-(1-methylcyclopropyl)-1H-pyrazol-4-yl]-7-(5-methyl-2,5-diazabicyclo[2.2.1]heptan-2-yl)quinazolin-2-amine] | 4.91
17 | CCC1(N2CCN(c3cc4nc(Nc5cnn(C6(C)CC6)c5Cl)ncc4cc3Cl)CC2)COC1 [Ex-4.29, 6-chloro-N-[5-chloro-1-(1-methylcyclopropyl)-1H-pyrazol-4-yl]-7-[4-(3-ethyloxetan-3-yl)piperazin-1-yl]quinazolin-2-amine] | 5.28
18 | Cc1cc2cnc(Nc3cnn(C4CC4(F)F)c3C)nc2cc1N1CCN(C2(C)COCC2O)CC1 (single isomer, unassigned) [Ex-5.3, (3S,4S) or (3R,4R) 4-(4-(2-((1-(2,2-(R) or (S)difluorocyclopropyl)-5-methyl-1H-pyrazol-4-yl)amino)-6-methylquinazolin-7-yl)piperazin-1-yl)-4-methyltetrahydrofuran-3-ol] | 0.31
19 | Cc1c(Nc2ncc3cc(Cl)c(N4CCN(C5COC5)[C@@H](C)C4)cc3n2)cnn1CCF [Ex-4.14, 6-chloro-N-[1-(2-fluoroethyl)-5-methyl-1H-pyrazol-4-yl]-7-[(3S)-3-methyl-4-(oxetan-3-yl)piperazin-1-yl]quinazolin-2-amine] | 0.969
20 | CC(C)n1ncc(Nc2ncc3cc(Cl)c(N4CCN(C5(C)COCC5O)CC4)cc3n2)c1C(F)F (single isomer, unassigned) [Ex-6.50, (3S,4S) or (3R,4R) 4-(4-(6-chloro-2-((5-(difluoromethyl)-1-isopropyl-1H-pyrazol-4-yl)amino)quinazolin-7-yl)piperazin-1-yl)-4-methyltetrahydrofuran-3-ol] | 0.08
21 | Cc1c(Nc2ncc3cc(Cl)c(N4CCC(C)(O)CC4)cc3n2)cnn1C1CC1 [Ex-6.4, 1-{6-chloro-2-[(1-cyclopropyl-5-methyl-1H-pyrazol-4-yl)amino}quinazolin-7-yl}-4-methylpiperidin-4-ol] | 1.92
22 | OC1C2CC1CN(c1cc3nc(Nc4cnn(C5CC5)c4Cl)ncc3cc1Cl)C2 (stereo not drawn) [Ex-1.35, 3-{6-chloro-2-[(5-chloro-1-cyclopropyl-1H-pyrazol-4-yl)amino]quinazolin-7-yl}-3-azabicyclo[3.1.1]heptan-6-ol] | 3.48
23 | Cc1cc2cnc(Nc3cnn(C45CC(C4)C5)c3Cl)nc2cc1N1CCN(C2COCC2O)CC1 (single isomer, unassigned) [Ex-5.13, (3S,4S) or (3R,4R) 4-(4-(2-((1-(bicyclo[1.1.1]pentan-1-yl)-5-chloro-1H-pyrazol-4-yl)amino)-6-methylquinazolin-7-yl)piperazin-1-yl)tetrahydrofuran-3-ol] | 1.05
24 | Cc1cc(Nc2ncc3cc(Cl)c(N4CCN(C5(C)COC5)CC4)cc3n2)sn1 [Ex-4.62, 6-chloro-7-[4-(3-methyloxetan-3-yl)piperazin-1-yl]-N-(3-methyl-1,2-thiazol-5-yl)quinazolin-2-amine] | 0.793
